pIC50, pKi: −log10 of the molar value. ≈ marks a conversion by molar mass, not a printed value.
Columns and labels:
[1] = Cmax in mouse brain at 10 mg/kg, ip measured after 10 mins; assay type: ADME, organism-based; set-up: route intraperitoneal, time 10 min, dose 10 mg/kg; settings: in vivo
Glutamate NMDA receptor [2] = assay: Displacement of [3H]-MK801 from NMDA receptor in rat brain membranes; assay type: cell membranes, Membrane
Glutamate NMDA receptor [3] = assay: Displacement of [3H]-MK801 from NMDA receptor in rat brain homogenate; assay type: tissue-based
[4] = Solubility of the compound in water; assay type: physicochemical
[5] = molecular target: Glutamate [NMDA] receptor; assay: Displacement of [3H]-MK801 from NMDA receptor in human cortex incubated for 2 hrs in presence of Mg2+ by scintillation counting method; assay type: tissue-based
Glutamate NMDA receptor [6] = assay: Displacement of [3H]-MK801 from NMDA receptor in rat whole brain homogenate incubated for 2 hrs in presence of Mg2+ by liquid scintillation counting method; assay type: tissue-based
Homo sapiens [7] = assay: Anesthetic activity in IM dosed human assessed as time duration of action; assay type: functional
[8] = Bioavailability in iv dosed human; assay type: ADME, organism-based; settings: in vivo
Homo sapiens [9] = assay: Anesthetic activity in IM dosed human assessed as time duration for onset of action; assay type: functional
[10] = Aqueous solubility of the compound; assay type: physicochemical
[11] = Bioavailability in REC dosed human; assay type: ADME, organism-based; settings: in vivo
[12] = Displacement of [3H]-MK801 from NMDA receptor in ICR Harlan mouse brain homogenate incubated for 45 mins by liquid scintillation spectrometry; assay type: tissue-based
[13] = Protein binding in human plasma; assay type: ADME, cell-free; settings: read-out: PPB (converted)
Homo sapiens [14] = assay: Anesthetic activity in po dosed human assessed as time duration for onset of action; assay type: functional
Glutamate NMDA receptor [15] = assay: Displacement of [3H]-MK801 from NMDA receptor in Sprague-Dawley rat cerebellum by liquid scintillation counting method; assay type: tissue-based
Glutamate NMDA receptor [16] = assay: Displacement of [3H]-MK801 from NMDA receptor in rat spinal cord incubated for 45 mins by liquid scintillation spectrometry; assay type: tissue-based
Homo sapiens [17] = assay: Anesthetic activity in po dosed human assessed as time duration of action; assay type: functional
Glutamate NMDA receptor [18] = assay: Displacement of [3H]-MK801 from NMDA receptor in rat striatum incubated for 2 hrs in presence of Mg2+ by scintillation counting method; assay type: tissue-based
Glutamate NMDA receptor [19] = assay: Displacement of [3H]-MK801 from NMDA receptor in Sprague-Dawley rat brain synaptic membrane incubated for 60 mins by liquid scintillation counting method; assay type: cell membranes
[20] = molecular target: Glutamate NMDA receptor; Grin1/Grin2a (Rattus norvegicus, UniProt P35439+Q00959); assay: Displacement of [3H]-MK801 from rat brain GluN1/GluN2A expressed in HEK293 cells; assay type: cell-based
Chain of Glutamate NMDA receptor; Grin1/Grin2a (Q00959 whole entry, other chains not shown): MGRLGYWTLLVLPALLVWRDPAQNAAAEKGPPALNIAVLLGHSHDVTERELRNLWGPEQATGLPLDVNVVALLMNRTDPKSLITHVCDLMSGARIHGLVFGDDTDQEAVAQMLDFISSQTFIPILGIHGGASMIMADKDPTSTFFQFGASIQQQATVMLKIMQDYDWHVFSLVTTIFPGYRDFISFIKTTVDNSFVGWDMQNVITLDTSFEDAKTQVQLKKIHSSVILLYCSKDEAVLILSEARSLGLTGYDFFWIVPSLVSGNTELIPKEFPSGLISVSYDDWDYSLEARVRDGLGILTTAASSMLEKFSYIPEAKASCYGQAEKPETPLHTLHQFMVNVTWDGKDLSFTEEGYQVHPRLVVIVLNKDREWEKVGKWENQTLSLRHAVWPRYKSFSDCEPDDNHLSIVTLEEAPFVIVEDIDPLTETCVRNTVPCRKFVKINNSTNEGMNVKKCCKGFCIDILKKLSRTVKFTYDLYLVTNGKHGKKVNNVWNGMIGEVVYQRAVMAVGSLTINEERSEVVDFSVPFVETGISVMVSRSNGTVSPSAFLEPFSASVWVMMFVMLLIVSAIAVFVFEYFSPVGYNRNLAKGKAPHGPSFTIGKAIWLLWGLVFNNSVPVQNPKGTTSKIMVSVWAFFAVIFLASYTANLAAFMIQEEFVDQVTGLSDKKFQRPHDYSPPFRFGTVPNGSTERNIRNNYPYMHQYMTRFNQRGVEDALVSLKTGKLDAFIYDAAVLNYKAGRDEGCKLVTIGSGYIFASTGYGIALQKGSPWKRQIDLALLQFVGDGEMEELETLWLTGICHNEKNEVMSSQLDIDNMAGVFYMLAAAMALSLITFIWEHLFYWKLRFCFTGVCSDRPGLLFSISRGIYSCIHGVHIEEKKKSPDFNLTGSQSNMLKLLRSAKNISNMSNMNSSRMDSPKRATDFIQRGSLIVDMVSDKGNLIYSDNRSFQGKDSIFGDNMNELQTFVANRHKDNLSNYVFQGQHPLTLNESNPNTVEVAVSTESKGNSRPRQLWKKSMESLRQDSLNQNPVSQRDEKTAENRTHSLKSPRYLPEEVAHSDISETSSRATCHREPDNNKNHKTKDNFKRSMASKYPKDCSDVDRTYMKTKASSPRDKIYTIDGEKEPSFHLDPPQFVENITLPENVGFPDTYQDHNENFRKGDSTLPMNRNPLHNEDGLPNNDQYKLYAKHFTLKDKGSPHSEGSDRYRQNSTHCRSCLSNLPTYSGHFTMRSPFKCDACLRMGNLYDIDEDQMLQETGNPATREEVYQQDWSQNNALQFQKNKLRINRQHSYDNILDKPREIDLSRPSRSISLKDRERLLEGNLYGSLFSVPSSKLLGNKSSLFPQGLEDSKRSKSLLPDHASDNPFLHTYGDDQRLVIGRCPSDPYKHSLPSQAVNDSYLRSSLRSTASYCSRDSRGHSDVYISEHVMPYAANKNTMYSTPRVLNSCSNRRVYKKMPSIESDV

Homo sapiens [21] = assay: Anesthetic activity in IN dosed human assessed as time duration for onset of action; assay type: functional
Glutamate NMDA receptor [22] = assay: Displacement of [3H]-MK801 from NMDA receptor in Sprague-Dawley rat cortex incubated for 2 hrs in presence of Mg2+ by scintillation counting method; assay type: tissue-based
[23] = Oral bioavailability in human; assay type: ADME, organism-based; settings: in vivo
Glutamate NMDA receptor [24] = assay: Displacement of [3H]-MK801 from NMDA receptor in rat brain membranes incubated for 60 mins in presence of Mg2+ by liquid scintillation counting method; assay type: cell membranes, Membrane
Glutamate NMDA receptor [25] = assay: Displacement of [3H]-TCP from NMDA receptor in rat brain membranes incubated for 45 mins in presence of Mg2+ by scintillation counting method; assay type: cell membranes, Membrane
[26] = Bioavailability in IN dosed human; assay type: ADME, organism-based; settings: in vivo, inhaled or intranasal
Glutamate NMDA receptor [27] = assay: Displacement of [3H]-MK801 from NMDA receptor in rat brain membranes incubated for 2 hrs in presence of Mg2+/glumate/glycine by radioligand binding assay; assay type: cell membranes, Membrane
[28] = Displacement of [3H]-MK801 from NMDA receptor in dog brain homogenate incubated for 45 mins by liquid scintillation spectrometry; assay type: tissue-based, Canis lupus familiaris
[29] = molecular target: Glutamate [NMDA] receptor; assay: Displacement of [3H]-MK801 from NMDA receptor in human frontal cortex in presence of Mg2+ by scintillation counting method; assay type: tissue-based
[30] = Drug elimination in human urine assessed as metabolically unchanged compound; assay type: ADME; settings: read-out: Drug excretion
[31] = Bioavailability in SL dosed human; assay type: ADME, organism-based; settings: in vivo
[32] = Bioavailability in human at 0.5 mg/kg, IM; assay type: ADME, organism-based; settings: in vivo
Glutamate NMDA receptor [33] = assay: Displacement of [3H]-MK801 from NMDA receptor in rat brain membranes incubated for 2 hrs in presence of Mg2+ by radioligand binding assay; assay type: cell membranes, Membrane
Glutamate NMDA receptor [34] = assay: Displacement of [3H]-MK801 from NMDA receptor in rat brain membranes incubated for 45 mins in presence of Mg2+ by scintillation counting method; assay type: cell membranes, Membrane
[35] = Elimination half life in Wistar rat at 20 mg/kg, iv by LC-MS analysis; assay type: ADME, organism-based; settings: in vivo, read-out: beta t1/2 (converted)
[36] = molecular target: Glutamate NMDA receptor; Grin1/Grin2b (Rattus norvegicus, UniProt P35439+Q00960); assay: Displacement of [3H]-MK801 from rat brain GluN1/GluN2B expressed in HEK293 cells; assay type: cell-based
Chain of Glutamate NMDA receptor; Grin1/Grin2b (Q00960 whole entry, other chains not shown): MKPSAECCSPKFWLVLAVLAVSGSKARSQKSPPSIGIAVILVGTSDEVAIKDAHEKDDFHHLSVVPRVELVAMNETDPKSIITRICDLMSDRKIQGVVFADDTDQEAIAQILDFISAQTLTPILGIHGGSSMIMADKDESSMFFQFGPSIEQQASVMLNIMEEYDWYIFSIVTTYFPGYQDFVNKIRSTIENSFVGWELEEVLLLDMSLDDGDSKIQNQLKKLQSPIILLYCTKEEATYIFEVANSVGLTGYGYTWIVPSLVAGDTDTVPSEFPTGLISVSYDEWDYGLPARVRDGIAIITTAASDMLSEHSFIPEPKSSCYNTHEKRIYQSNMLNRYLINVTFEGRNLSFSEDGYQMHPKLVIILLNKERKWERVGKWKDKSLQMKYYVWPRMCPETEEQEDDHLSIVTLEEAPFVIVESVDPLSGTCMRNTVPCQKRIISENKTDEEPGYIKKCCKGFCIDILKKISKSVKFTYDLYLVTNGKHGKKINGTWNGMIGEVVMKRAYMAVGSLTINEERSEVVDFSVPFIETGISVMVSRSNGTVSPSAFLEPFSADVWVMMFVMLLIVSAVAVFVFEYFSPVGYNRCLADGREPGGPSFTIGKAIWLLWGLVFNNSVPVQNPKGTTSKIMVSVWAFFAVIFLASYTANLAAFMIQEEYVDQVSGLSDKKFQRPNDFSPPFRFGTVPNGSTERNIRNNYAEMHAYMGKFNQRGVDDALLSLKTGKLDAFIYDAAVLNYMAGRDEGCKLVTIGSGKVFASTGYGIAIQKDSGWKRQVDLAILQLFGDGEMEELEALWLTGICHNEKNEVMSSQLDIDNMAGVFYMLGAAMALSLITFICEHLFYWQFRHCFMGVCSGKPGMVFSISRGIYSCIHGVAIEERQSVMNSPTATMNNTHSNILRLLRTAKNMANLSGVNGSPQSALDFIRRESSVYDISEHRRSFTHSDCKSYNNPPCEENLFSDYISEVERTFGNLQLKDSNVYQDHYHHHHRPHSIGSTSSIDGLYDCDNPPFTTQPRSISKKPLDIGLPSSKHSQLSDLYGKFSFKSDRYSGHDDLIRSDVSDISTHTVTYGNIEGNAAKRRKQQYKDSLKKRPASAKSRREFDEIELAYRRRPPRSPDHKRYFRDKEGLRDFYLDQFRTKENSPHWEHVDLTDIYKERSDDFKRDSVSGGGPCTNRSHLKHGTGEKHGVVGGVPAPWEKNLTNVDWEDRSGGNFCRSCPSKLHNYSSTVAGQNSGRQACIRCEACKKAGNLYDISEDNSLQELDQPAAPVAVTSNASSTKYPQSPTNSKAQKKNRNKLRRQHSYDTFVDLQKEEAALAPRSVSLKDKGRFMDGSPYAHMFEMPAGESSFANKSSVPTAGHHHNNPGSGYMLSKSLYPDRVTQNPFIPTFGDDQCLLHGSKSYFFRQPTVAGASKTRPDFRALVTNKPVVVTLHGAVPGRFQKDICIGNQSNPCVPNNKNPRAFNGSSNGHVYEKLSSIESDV

[37] = Elimination half life in human; assay type: ADME; settings: read-out: beta t1/2 (converted)
[38] = Displacement of [3H]-MK801 from NMDA receptor in dog cerebral cortex incubated for 45 mins by liquid scintillation spectrometry; assay type: tissue-based, Canis lupus familiaris
[39] = molecular target: Glutamate NMDA receptor; GRIN1/GRIN2A (Homo sapiens, UniProt Q05586+Q12879); assay: Displacement of [3H]-MK801 from human forebrain […] expressed in HEK293 cells by […]; assay type: cell-based
Chain of Glutamate NMDA receptor; GRIN1/GRIN2A (Q12879 whole entry, other chains not shown): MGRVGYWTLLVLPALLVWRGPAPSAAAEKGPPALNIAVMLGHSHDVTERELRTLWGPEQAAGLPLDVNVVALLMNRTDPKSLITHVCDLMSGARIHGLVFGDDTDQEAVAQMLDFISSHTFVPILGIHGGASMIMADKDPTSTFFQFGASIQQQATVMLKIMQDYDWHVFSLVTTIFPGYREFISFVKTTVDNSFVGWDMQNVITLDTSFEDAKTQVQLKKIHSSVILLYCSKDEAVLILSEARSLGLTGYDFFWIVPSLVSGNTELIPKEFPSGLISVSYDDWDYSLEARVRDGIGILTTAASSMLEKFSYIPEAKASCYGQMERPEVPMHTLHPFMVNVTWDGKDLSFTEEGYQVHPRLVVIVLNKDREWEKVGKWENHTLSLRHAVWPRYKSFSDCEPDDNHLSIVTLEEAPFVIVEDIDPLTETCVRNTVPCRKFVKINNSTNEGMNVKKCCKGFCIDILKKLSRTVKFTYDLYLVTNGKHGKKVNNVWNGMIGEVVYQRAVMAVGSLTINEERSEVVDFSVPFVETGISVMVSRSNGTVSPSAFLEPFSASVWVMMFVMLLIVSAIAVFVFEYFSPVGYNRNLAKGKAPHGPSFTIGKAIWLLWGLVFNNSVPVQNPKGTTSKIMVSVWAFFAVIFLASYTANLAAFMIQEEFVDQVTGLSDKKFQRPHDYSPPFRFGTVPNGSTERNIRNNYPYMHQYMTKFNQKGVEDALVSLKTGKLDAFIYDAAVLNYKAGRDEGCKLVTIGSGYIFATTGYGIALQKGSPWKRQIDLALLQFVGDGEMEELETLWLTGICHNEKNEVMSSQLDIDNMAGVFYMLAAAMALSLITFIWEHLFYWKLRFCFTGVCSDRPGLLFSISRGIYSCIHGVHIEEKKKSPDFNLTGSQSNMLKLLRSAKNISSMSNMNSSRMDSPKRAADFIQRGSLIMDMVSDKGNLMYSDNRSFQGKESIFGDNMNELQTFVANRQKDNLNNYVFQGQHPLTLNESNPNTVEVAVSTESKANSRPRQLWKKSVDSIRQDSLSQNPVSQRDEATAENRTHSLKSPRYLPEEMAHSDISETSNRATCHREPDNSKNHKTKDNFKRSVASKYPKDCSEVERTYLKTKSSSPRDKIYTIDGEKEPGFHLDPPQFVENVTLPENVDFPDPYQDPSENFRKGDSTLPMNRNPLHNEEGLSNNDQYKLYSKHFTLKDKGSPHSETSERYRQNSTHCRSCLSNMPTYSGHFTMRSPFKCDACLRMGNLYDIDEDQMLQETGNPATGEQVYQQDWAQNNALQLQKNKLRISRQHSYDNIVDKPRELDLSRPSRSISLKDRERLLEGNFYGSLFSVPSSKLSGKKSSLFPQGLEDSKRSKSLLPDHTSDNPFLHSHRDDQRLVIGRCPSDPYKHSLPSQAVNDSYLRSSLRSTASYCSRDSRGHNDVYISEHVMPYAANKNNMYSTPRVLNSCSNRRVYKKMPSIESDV

Homo sapiens [40] = assay: Anesthetic activity in SC dosed human assessed as time duration for onset of action; assay type: functional
[41] = Displacement of [3H]-MK801 from NMDA receptor in Dunkin-Hartley guinea pig brain homogenate incubated for 45 mins by liquid scintillation spectrometry; assay type: tissue-based, Cavia porcellus
Glutamate NMDA receptor [42] = assay: Displacement of [3H]-MK801 from NMDA receptor in rat forebrain homogenate incubated for 2 hrs in presence of Mg2+ by liquid scintillation counting method; assay type: tissue-based
[43] = Cmax in human at 2 mg/kg, iv measured after 1 mins; assay type: ADME, organism-based; set-up: route intravenous, time 1 min, dose 2 mg/kg; settings: in vivo
Glutamate NMDA receptor [44] = assay: Inhibition of NMDAR-mediated excitatory postsynaptic potential in Sprague-Dawley rat hippocampus CA1 region by electrophysiology; set-up: species or system Brain
Glutamate NMDA receptor [45] = assay: Displacement of [3H]-MK801 from NMDA receptor in Sprague-Dawley rat cerebral cortex by liquid scintillation counting method; assay type: tissue-based

CN[C@@]1(c2ccccc2Cl)CCCCC1=O
Cmax [1]: 7.93 µmol/kg
pKi (Glutamate NMDA receptor [2]): 5.59
pKi (Glutamate NMDA receptor [3]): 5.85

CNC1(c2ccccc2Cl)CCCCC1=O.Cl (stereo not given) [KETAMINE HYDROCHLORIDE]
solubility [4]: 200 mg/mL

CN[C@]1(c2ccccc2Cl)CCCCC1=O [ESKETAMINE]
Cmax [1]: 7.33 µmol/kg
pKi (Glutamate NMDA receptor [2]): 6.16
pKi (Glutamate NMDA receptor [3]): 6.52

N[C@]1(c2ccccc2Cl)CCCCC1=O
pKi (Glutamate NMDA receptor [2]): 5.65
pKi (Glutamate NMDA receptor [3]): 5.77

CNC1(c2ccccc2Cl)CCCCC1=O (stereo not given) [KETAMINE]
pKi [5]: 6.74
pKi (Glutamate NMDA receptor [6]): 6.74
Time (Homo sapiens [7]): 0.5 h
F [8]: 100%
Time (Homo sapiens [9]): 1 min
solubility [10]: 0.046 mg/mL (≈ 193 µM)
bioavailability [11]: 11%
pKi [12]: 6.74
fraction unbound [13]: 0.88
Time (Homo sapiens [14]): 15 min
pKi (Glutamate NMDA receptor [15]): 6.74
pKi (Glutamate NMDA receptor [16]): 6.74
Time (Homo sapiens [17]): 4 h
pKi (Glutamate NMDA receptor [18]): 6.74
pKi (Glutamate NMDA receptor [19]): 6.74
pKi [20]: 6.74
Time (Homo sapiens [21]): 5 min
pKi (Glutamate NMDA receptor [22]): 6.74
bioavailability [23]: 17%
pKi (Glutamate NMDA receptor [24]): 6.74
pKi (Glutamate NMDA receptor [25]): 6.74
bioavailability [26]: 8%
pKi (Glutamate NMDA receptor [27]): 6.74
pKi [28]: 6.74
pKi [29]: 6.74
dose excreted [30]: 2%
bioavailability [31]: 24%
bioavailability [32]: 93%
pKi (Glutamate NMDA receptor [33]): 6.74
pKi (Glutamate NMDA receptor [34]): 6.74
half-life [35]: 8 h
pKi [36]: 6.74
half-life [37]: 2 h
pKi [38]: 6.74
pKi [39]: 6.74
Time (Homo sapiens [40]): 15 min
pKi [41]: 6.74
pKi (Glutamate NMDA receptor [42]): 6.74
Cmax [43]: 7.6 µM
pIC50 (Glutamate NMDA receptor [44]): 5.00
pKi (Glutamate NMDA receptor [45]): 6.74
